The term solubility denotes the dissolved amount per volume that the medium holds. A low value points to little dissolved substance.

Read-outs that look alike come from different tables or passages of the source. Where a SMILES comes first, the peptide text is derived from it. [ ]: non-standard residue; d: D form. pGlu = O=C1CC[C@@H](C(=O)O)N1

Data set [1] in a line: Plasma concentrations of Nexvax2 peptides (UHPLC-MS/MS), pre-treatment and 45 minutes post-treatment. Particulars: 45 minutes after treatment at levels above 300 μg; almost all participants; LLOQ 2 ng/mL. It is filed as in vivo, human. How it is done: • Weekly Gastrointestinal Symptom Rating Scale (GSRS) scores, and relative change in plasma cytokine levels 4 hours after 150 microgram and higher doses. Plasma concentrations pre- and 45 min post-dose, and villous height to crypt depth ratio (VH:CrD) in 2nd part duodenal biopsies were assessed in Cohort 3.
Pharmacodynamics assessments included a 38plex assay to profile cytokine and chemokine concentrations in plasma before and up to 10 hours post-treatment at visits corresponding to administration of Nexvax2 at the previously determined maximum tolerated dose (150 μg) and at each of the higher dose levels. The percentage of leukocytes in whole blood that corresponded to T cells or helper, cytotoxic, regulatory, or activated (CCR6-positive) T cell subsets was estimated using epigenetic cell counting before and after dosing during the treatment period at times indicated. Pharmacokinetics of the three constituent peptides in Nexvax2 were assessed pre-treatment and 45 minutes post-treatment in cohort 3 at visits corresponding to dose levels 300 μg and above. Serum levels of anti-Nexvax2 antibodies were also assessed in cohort 3 at times shown. A four-week observational period followed the end of treatment visit.
Pharmacokinetics of Nexvax2 peptides was summarised by dose level and presented as mean (95% CI) plasma concentrations; correlation coefficients were used to compare the plasma concentrations of the Nexvax2 peptides. […] Data from cohorts 1 and 2 were analysed separately according to the Nexvax2 starting dose levels of 3 μg or 30 μg. […]
Blood was collected 30 minutes before and 45 minutes after study drug administration. […] Charles River Laboratories Ashland, LLC (Ashland, Ohio, USA) measured the concentrations of NPL001, NPL002, and NPL003. […] Reconstituted sample extracts were analysed with a UHPLC-MS/MS assay using a Waters Acquity® UPLC Peptide BEH C18 Column, 300 Å, 1.7-μm particle-size, 2.1×50 mm column (Waters Corporation, Milford, Mass., USA). […]

The conditions of data set [2]: pH 7.
Data set [3] can be described thus: Solubility in normal saline at pH 7.

On to `CC(C)C[C@H](NC(=O)[C@@H]1CCC(=O)N1)C(=O)N[C@@H](CCC(N)=O)C(=O)N1CCC[C@H]1C(=O)N[C@@H](Cc1ccccc1)C(=O)N1CCC[C@H]1C(=O)N[C@@H](CCC(N)=O)C(=O)N1CCC[C@H]1C(=O)N[C@@H](CCC(=O)O)C(=O)N[C@@H](CC(C)C)C(=O)N1CCC[C@H]1C(=O)N[C@@H](Cc1ccc(O)cc1)C(=O)N1CCC[C@H]1C(=O)N[C@@H](CCC(N)=O)C(=O)N1CCC[C@H]1C(=O)N[C@@H](CCC(N)=O)C(N)=O` [NPL001, (pE)LQPFPQPELPYPQPQ-NH2] ([pGlu]LQPFPQPELPYPQPQ-NH2), for which the “Plasma concentration versus limit of quantification” value (shortened to “Plasma concentration versus limit”) in data set [1] was “above the limit of quantification”. In data set [2], the solubility is more than 50 mg/mL.

Turning to `NC(=O)CC[C@H](NC(=O)[C@H](Cc1c[nH]c2ccccc12)NC(=O)[C@@H]1CCCN1C(=O)[C@H](Cc1ccccc1)NC(=O)[C@@H]1CCCN1C(=O)[C@H](CCC(N)=O)NC(=O)[C@H](CCC(=O)O)NC(=O)[C@@H]1CCCN1C(=O)[C@H](CCC(N)=O)NC(=O)[C@@H]1CCCN1C(=O)[C@H](Cc1ccccc1)NC(=O)[C@@H]1CCCN1C(=O)[C@H](CCC(N)=O)NC(=O)[C@@H]1CCC(=O)N1)C(=O)N1CCC[C@H]1C(N)=O` [NPL002, (pE)QPFPQPEQPFPWQP-NH2] ([pGlu]QPFPQPEQPFPWQP-NH2), the “Plasma concentration versus limit” value in data set [1] is recorded as “above the limit of quantification”. In data set [3], this compound showed a solubility not above 25 mg/mL.

As to `CC[C@H](C)[C@H](NC(=O)[C@@H]1CCCN1C(=O)[C@H](CCC(N)=O)NC(=O)[C@H](CCC(=O)O)NC(=O)[C@@H]1CCCN1C(=O)[C@@H]1CCC(=O)N1)C(=O)N1CCC[C@H]1C(=O)N[C@@H](CCC(=O)O)C(=O)N[C@@H](CCC(N)=O)C(=O)N1CCC[C@H]1C(=O)N[C@@H](CCC(N)=O)C(=O)N1CCC[C@H]1C(=O)N[C@@H](Cc1ccc(O)cc1)C(=O)N1CCC[C@H]1C(=O)N[C@@H](CCC(N)=O)C(=O)N[C@@H](CCC(N)=O)C(N)=O` [NPL003], in data set [1], the “Plasma concentration versus limit” value was “above the limit of quantification”. The solubility in data set [3] is more than 50 mg/mL.

Source of the values: patent publication US20200397852A1, “DOSING REGIMENS FOR CELIAC DISEASE” (ImmusanT, Inc., priority 2017, published 2020).
